Reference: US20110045004A1, “METHOD FOR IN-VITRO DETECTING PATHOGENIC T HELPER CELLS AND PHARMACEUTICAL COMPOSITIONS FOR TREATING AUTOIMMUNE DISEASES” (DEUTCHES RHEUMA-FORSCHUNGSZENTRUM BERLIN, priority 2007, published 2011)

Experiments:
[1] = test system: twist1 mRNA in 4-w-old Th1 cells; assay: twist1 mRNA (RT PCR) in restimulated 4-w-old Th1 cells with inhibitors or single stimuli; type: cell-based, murine; conditions: for PMA/ionomycin mediated up-regulation of twist1 mRNA expression: 4-w-old Th1 cells restimulated 3 h with PMA/ionomycin and IL-2, serial dilutions of inhibitor (FIG. 2B); for induction of twist1 expression by stimulus alone: 4-w-old Th1 cells restimulated 3 h in the presence of IL-2 (FIG. 2C)
Method: (§1) Lymphocytes were cultured in complete RPMI1640 (Invitrogen) supplemented with 10% heat-inactivated fetal calf serum, 100 units/ml penicillin, 0.1 mg/ml streptomycin and 10 μM β-mercaptoethanol. Naïve CD4+CD62L+ lymphocytes from 6-8 w old DO11.10 mice were isolated as described. Irradiated (30 Gy) BALB/c splenocytes were used as APCs at a ratio of 5:1. The cognate peptide ova323-339 (R. Volkmer-Engert, Humboldt University of Berlin, Germany) was added at 0.5 μM. Alternatively, plates were coated with 3 μg/ml anti-CD3 (145-2C11) in PBS, and CD4+ cells were plated at a density of 2×10^6 cells/ml in medium plus 1 μg/ml soluble anti-CD28 (37.51). For Th1 differentiation, cells were stimulated in the presence of 5 ng/ml recombinant murine IL-12 (R&D Systems) and 5 μg/ml anti-IL-4 antibody (11B11). For Th2 differentiation, cells were stimulated in the presence of murine IL-4 (100 ng/ml, culture supernatant of HEK293T cells transfected with an expression plasmid, encoding murine IL-4), 5 μg/ml anti-IL-12 antibody (C17.8.6) and anti-IFN-γ antibody (AN18.17.24). Dead cells were removed by Ficoll-Histopaque separation. Every 6 d viable Th cells were harvested and restimulated under the original conditions, except that 10 ng/ml murine IL-2 (R&D Systems) was added.
Cells were re-stimulated with 10 ng/ml PMA, and 1 μg/ml ionomycin. Alternatively, cells were re-stimulated with plate-bound anti-CD3 (10 μg/ml), and soluble anti-CD28 ([…]). For re-stimulation of murine T cells, 10 ng/ml IL-2 was added. For intracellular staining of cytokines, T cells were stimulated for 2 h with PMA/ionomycin and additional 3 h with 5 μg/ml of brefeldin A to block the secretion of cytokines. Cells were fixed with 2% formaldehyde in PBS for 15 min at room temperature and permeabilized with 0.5% w/v saponin.
(§2) Total RNA was prepared using NucleoSpin RNA II (Macherey-Nagel) or RNeasy kit (Qiagen). […] For the normalization of murine and human cDNA the transcripts for the housekeeping genes hypoxanthine guanine phosphoribosyl transferase (HPRT) and ubiquitin ligase H5 (UbCH5) were quantified, respectively. Data were evaluated using Lightcycler software. Relative expression was calculated as follows: Et^ΔCp target gene (reference-sample)/EhΔCp housekeeping gene (reference-sample), where Cp represents the crossing point and E represents the reaction efficiency, determined by serial dilution of DNA.
(A) Comparison of the genomic sequence of the murine and the human proximal twist1 promoter (−150 to −100). […] The binding of NFAT1 (D) and the NF-κB subunit p65 (E) to the proximal promoter of twist1 was analyzed by chromatin immunoprecipitation (ChIP). […] The immunoprecipitated DNA was quantified by RT PCR using primers specific for the proximal promoter. […]

[2] = test system: Rag-deficient mice, intestine; assay: Transfer colitis model with Hop shRNA transduced Th1 cells; type: in vivo, murine; conditions: Th1 cells transduced with shRNA transferred into Rag-deficient mice (FIG. 12)
Excerpt: To assess the functional role of hop we used a T cell dependent model of inflammatory bowel disease. In this model, T cells are transferred into Rag-deficient or SCID mice lacking T and B cells. In this model, the transferred T cells react against the intestinal bacterial flora leading to inflammation in the intestine. For the analysis of the function of Hop we inhibited the expression of Hop by shRNA-mediated knock-down. Polyclonally activated Th1 cells transduced with a retroviral vector encoding a Hop-specific shRNA or a control shRNA were transferred into Rag-deficient mice. […] The transfer of control Th1 cells lead to severe inflammation of the intestine with strong infiltration of inflammatory cells and a complete loss of the intestinal architecture.

[3] = test system: twist1 mRNA in DO11.10 Th cells; assay: twist1 mRNA induction by Th1-polarizing signals in DO11.10 Th cells; type: cell-based, murine; conditions: for induction of twist1 expression by polarizing signal: CD62Lhi DO11.10 Th cells stimulated 5 d, then 3 h PMA/ionomycin and IL-2, IFN-γ tested in the absence of IL-12 (FIG. 3A)
Method: as §1, §2
Twist1 mRNA of Th cells activated for 3 h with PMA/ionomycin and IL-2 was quantified by RT PCR (A-D). […] Twist1 transcripts were quantified on d 11. […]

O=C(Nc1ccc(-n2nc(C(F)(F)F)cc2C(F)(F)F)cc1)c1ccc(Cl)cc1 [BTP1]
PMA/ionomycin mediated up-regulation of twist1 mRNA expression [1]: blocked the PMA/ionomycin mediated up-regulation of twist1 mRNA expression in a dose-dependent fashion

S=C(S)N1CCCC1 [PDTC, pyrrolidine dithiocarbamate]
PMA/ionomycin mediated up-regulation of twist1 mRNA expression [1]: blocked the PMA/ionomycin mediated up-regulation of twist1 mRNA expression in a dose-dependent fashion

CCCCCCCCCCCCCC(=O)O[C@@H]1[C@@H](C)[C@@]2(O)[C@@H](C=C(CO)C[C@]3(O)C(=O)C(C)=C[C@@H]23)[C@@H]2C(C)(C)[C@]12OC(C)=O [PMA]
induction of twist1 expression by stimulus alone [1]: did not induce twist1 expression

Hop-specific shRNA: retroviral vector encoded shRNA against Hop, target sequence SEQ ID NO. 40, whole shRNA SEQ ID NO. 41 (TGCAGATCTGTTACGGACTATTCAAGAGATAGTCCGTAACAGATCTGCTTTTTTC)
clinical signs of inflammation, histological analysis of the intestine [2]: strongly reduced clinical signs of inflammation

IFN-γ: cytokine added in the absence of IL-12, 10 ng/ml
induction of twist1 expression by polarizing signal [3]: did not induce twist1 expression

TNF-α
induction of twist1 expression by stimulus alone [1]: did not induce twist1 expression

B1: IL-12: recombinant murine IL-12, Th1-polarizing signal (protein, UniProt P43431 23-215; P43432 23-335, looked up)
Interleukin-12 subunit alpha: RVIPVSGPARCLSQSRNLLKTTDDMVKTAREKLKHYSCTAEDIDHEDITRDQTSTLKTCLPLELHKNESCLATRETSSTTRGSCLPPQKTSLMMTLCLGSIYEDLKMYQTEFQAINAALQNHNHQQIILDKGMLVAIDELMQSLNHNGETLRQKPPVGEADPYRVKMKLCILLHAFSTRVVTINRVMGYLSSA
Interleukin-12 subunit beta: MWELEKDVYVVEVDWTPDAPGETVNLTCDTPEEDDITWTSDQRHGVIGSGKTLTITVKEFLDAGQYTCHKGGETLSHSHLLLHKKENGIWSTEILKNFKNKTFLKCEAPNYSGRFTCSWLVQRNMDLKFNIKSSSSSPDSRAVTCGMASLSAEKVTLDQRDYEKYSVSCQEDVTCPTAEETLPIELALEARQQNKYENYSTSFFIRDIIKPDPPKNLQMKPLKNSQVEVSWEYPDSWSTPHSYFSLKFFVRIQRKKEKMKETEEGCNQKGAFLVEKTSTEVQCKGGNVCVQAQDRYYNSSCSKWACVPCRVRS
induction of twist1 expression by polarizing signal [3]: induced twist1 expression in a dose-dependent fashion
increase of TCR activation-dependent twist1 expression over one week stimulated Th1 cells ([3]; Th1 cells polarized one week with IL-12, reactivated another week in the presence of IL-12 (FIG. 3D)): 16 fold
